Patent publication US20240336594A1, “SIX-MEMBERED ARYL OR HETEROARYL AMIDES, AND COMPOSITION AND USE THEREOF” (BETTA PHARMACEUTICALS CO., LTD, priority 2021, published 2024)

Molecular target: T1, MALT1 (Homo sapiens, UniProt Q9UDY8)
T1 sequence (Q9UDY8 1-824): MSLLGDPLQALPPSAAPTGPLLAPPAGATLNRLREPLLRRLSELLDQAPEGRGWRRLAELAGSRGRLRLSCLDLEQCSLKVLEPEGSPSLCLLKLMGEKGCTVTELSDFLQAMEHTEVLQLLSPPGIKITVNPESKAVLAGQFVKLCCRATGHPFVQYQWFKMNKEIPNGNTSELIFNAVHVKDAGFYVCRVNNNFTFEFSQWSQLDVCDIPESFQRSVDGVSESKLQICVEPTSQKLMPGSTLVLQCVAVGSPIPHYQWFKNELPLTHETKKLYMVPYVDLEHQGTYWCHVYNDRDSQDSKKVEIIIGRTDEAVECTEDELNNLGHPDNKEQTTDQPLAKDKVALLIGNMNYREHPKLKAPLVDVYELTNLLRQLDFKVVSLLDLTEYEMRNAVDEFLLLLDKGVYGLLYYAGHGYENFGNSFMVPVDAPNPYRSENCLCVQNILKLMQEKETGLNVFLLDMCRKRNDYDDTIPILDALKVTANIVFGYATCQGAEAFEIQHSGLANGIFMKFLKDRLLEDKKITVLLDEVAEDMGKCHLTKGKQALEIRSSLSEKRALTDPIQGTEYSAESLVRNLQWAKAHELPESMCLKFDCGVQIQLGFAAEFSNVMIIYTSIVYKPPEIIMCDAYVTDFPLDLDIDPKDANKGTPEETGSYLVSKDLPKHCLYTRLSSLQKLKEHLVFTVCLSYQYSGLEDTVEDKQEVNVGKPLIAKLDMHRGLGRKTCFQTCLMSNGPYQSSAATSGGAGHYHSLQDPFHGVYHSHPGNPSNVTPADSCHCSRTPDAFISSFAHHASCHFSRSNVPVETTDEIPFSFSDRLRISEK
Test: MALT1 protease inhibition assay (AMC-labeled peptide, fluorescence 360/460)
Type: biochemical
Conditions: substrate Ac-LRSR-AMC, 15 min preincubation, 90 min at 25° C.
Procedure: Test compounds of the present invention (in 100% DMSO) were spotted into a 384-well dilution plate and serially diluted to the required concentrations with DMSO. Then, 0.2 μL of the test compounds were transferred into a new 384-well reaction plate by Echo following centrifugation. The MALT enzyme and its substrate, AMC-labeled peptide, were prepared in 1× protease buffer to yield 2× enzyme solution and 2× peptide solution. Subsequently, 10 μL of 2× enzyme solution was added into the 384-well reaction plate, incubating with the test compounds for 15 minutes at 25° C. After that, 10 μL of 2× peptide solution was added into the plate, continuing to incubate for 90 minutes at 25° C. The plate was then placed on an Envision multifunctional microplate reader to collect raw data, which would be converted into inhibition rate:
Inhibition rate %=(max−sample)/(max−min)*100%. • “max” values were measured using the reaction with enzyme but no compound treated, while “min” values were generated from control wells containing assay buffer without enzyme.
Curve fitting was done with Graphpad Prism software to determine the IC50 values. The specific experimental operations are as follows:
58.82 g Na Citrate·2H2O powder was added into 140 mL ddH2O and mixed in a 37° C. water bath. Once there were no visible particles, the remaining solutions were added successively with continuous stirring for 10 minutes. The final volume was adjusted to 200 mL. The buffer was stored at room temperature. DTT was added before use.
• 1) All test compounds were diluted from 10 mM stock solution into 1 mM in a 384 well dilution plate (labcyte, PP-0200); • 2) Ten various concentrations of the diluted compound solution above were obtained by serial dilution at an equal ratio of 1:3; • 3) 0.2 μL DMSO was transferred to two empty wells of the 384 reaction plate as blank controls without compound and enzyme respectively; • 4) 0.2 μL of the test compound at different concentrations was also transferred into the 384 reaction plate by Echo, with two duplicate wells for each concentration, then the plate was centrifuged at 1000 rpm for 1 min.
• 1) The MALT1 protease and AMC-labeled peptide was prepared in 1× protease buffer to obtain 2× enzyme solution and 2× peptide solution. 10 μL of 2× enzyme solution was added into the 384-well reaction plate. The plate was centrifuged at 1000 rpm for 1 min and incubated for 15 min at 25° C. • 2) 10 μL of 2× peptide solution was then transferred to the 384 reaction plate, and the plate was centrifuged at 1000 rpm for 1 min and incubate for 90 min at 25° C.

Row | IC50 [nM] | Structure (SMILES)
1 | ≤ 10 | C#Cc1c(F)nc(F)c(N)c1-c1cc(Cl)c(C(=O)Nc2cnc(-n3nccn3)c(C(F)(F)F)c2)cc1F [Example A557, N-(6-(2H-1,2,3-triazol-2-yl)-5-(trifluoromethyl)pyridin-3-yl)-4-(3-amino-5-ethynyl-2,6-difluoropyridin-4-yl)-2-chloro-5-fluorobenzamide]
2 | 100 to 500 | Nc1cc(F)ccc1-c1cc(Cl)c(C(=O)Nc2cnc(C(=O)NCc3nnco3)c(Cl)c2)cc1F [Example A452, N-((1,3,4-oxadiazol-2-yl)methyl)-5-(2′-amino-5-chloro-2,4′-difluoro-[1,1′-biphenyl]-4-carboxamido)-3-chloropicolinamide]
3 | 10 to 100 | CS(=O)(=O)CCNC(=O)c1ncc(NC(=O)c2cc(F)c(-c3ccc(F)cc3N)cc2Cl)cc1Cl [Example A469, 5-(2′-amino-5-chloro-2,4′-difluoro-[1,1′-biphenyl]-4-carboxamido)-3-chloro-N-(2-(methylsulfonyl)ethyl) picolinamide]
4 | ≤ 10 | C#Cc1cncc(N)c1-c1cc(Cl)c(C(=O)Nc2ccnc(C(F)(F)F)c2)cc1F [Example A518, 4-(3-amino-5-ethynylpyridin-4-yl)-2-chloro-5-fluoro-N-(2-(trifluoromethyl)pyridin-4-yl)benzamide]
5 | > 500 | Nc1cc(F)ccc1-c1cc(Cl)c(C(=O)Nc2cnc(-n3nccn3)c(Cl)c2)cc1C1=CCCCC1 [Example A418, 2-amino-5′-chloro-N-(5-chloro-6-(2H-1,2,3-triazol-2-yl)pyridin-3-yl)-4-fluoro-2″,3″,4″,5″-tetrahydro-[1,1′:2′,1″-terphenyl]-4′-carboxamide]
6 | 10 to 100 | C#Cc1cnccc1-c1cc(Cl)c(C(=O)Nc2cnc(C(=O)NCC(=O)N(CC)CC)c(Cl)c2)cc1F [Example A435, 3-chloro-5-(2-chloro-4-(3-ethynylpyridin-4-yl)-5-fluorobenzamido)-N-(2-(diethylamino)-2-oxoethyl)picolinamide]
7 | ≤ 10 | CC(C)(C)CNC(=O)c1ncc(NC(=O)c2cc(F)c(-c3ccc(F)cc3N)cc2Cl)cc1Cl [Example A446, 5-(2′-amino-5-chloro-2,4′-difluoro-[1,1′-biphenyl]-4-carboxamido)-3-chloro-N-neopentylpicolinamide]
8 | 10 to 100 | COCCNC(=O)c1ncc(NC(=O)c2cc(F)c(-c3ccc(F)cc3N)cc2Cl)cc1Cl [Example A449, 5-(2′-amino-5-chloro-2,4′-difluoro-[1,1′-biphenyl]-4-carboxamido)-3-chloro-N-(2-methoxyethyl)picolinamide]
9 | ≤ 10 | C=CC(=O)Nc1cnccc1-c1cc(Cl)c(C(=O)Nc2cnc(-n3nccn3)c(Cl)c2)cc1F [Example A342, 4-(3-acrylamidopyridin-4-y1)-2-chloro-N-(5-chloro-6-(2H-1,2,3-triazol-2-y1)pyridin-3-y1)-5-fluorobenzamide]
10 | 10 to 100 | C=Cc1cc(C(=O)Nc2cnc(-n3nccn3)c(Cl)c2)c(C)cc1-c1ccc(F)cc1N [Example A425]
11 | 10 to 100 | CC#Cc1cc(C(=O)Nc2cnc(-n3nccn3)c(Cl)c2)c(C)cc1-c1ccc(F)cc1N [Example A423]
12 | 10 to 100 | C#Cc1cnccc1-c1cc(Cl)c(C(=O)Nc2cnc(C(=O)NCC(C)(C)C)c(Cl)c2)cc1F [Example A434, 3-chloro-5-(2-chloro-4-(3-ethynylpyridin-4-yl)-5-fluorobenzamido)-N-neopentylpicolinamide]
13 | 10 to 100 | Nc1cc(F)ccc1-c1cc(Cl)c(C(=O)Nc2cnc(C(=O)NCc3ccoc3)c(Cl)c2)cc1F [Example A447, 5-(2′-amino-5-chloro-2,4′-difluoro-[1,1′-biphenyl]-4-carboxamido)-3-chloro-N-(furan-3-ylmethyl)picolinamide]
14 | ≤ 10 | Nc1cnc(F)c(Br)c1-c1cc(Cl)c(C(=O)Nc2cnc(-n3nccn3)c(C(F)(F)F)c2)cc1F [Example A521, N-(6-(2H-1,2,3-triazol-2-yl)-5-(trifluoromethyl)pyridin-3-yl)-4-(5-amino-3-bromo-2-fluoropyridin-4-yl)-2-chloro-5-fluorobenzamide]
15 | ≤ 10 | C#Cc1cncc(N)c1-c1cc(Cl)c(C(=O)Nc2cnc(C(=O)NCCF)c(Cl)c2)cc1F [Example A472, 5-(4-(3-amino-5-ethynylpyridin-4-yl)-2-chloro-5-fluorobenzamido)-3-chloro-N-(2-fluoroethyl)picolinamide]
16 | ≤ 10 | C#Cc1cnc(C)c(N)c1-c1cc(Cl)c(C(=O)Nc2cnc(-n3nccn3)c(C(F)(F)F)c2)cc1F [Example A551, N-(6-(2H-1,2,3-triazol-2-yl)-5-(trifluoromethyl)pyridin-3-yl)-4-(3-amino-5-ethynyl-2-methylpyridin-4-yl)-2-chloro-5-fluorobenzamide]
17 | ≤ 10 | Nc1cc(F)ccc1-c1cc(Cl)c(C(=O)Nc2cnc(C(=O)NCC(F)(F)F)c(Cl)c2)cc1F [Example A443, 5-(2′-amino-5-chloro-2,4′-difluoro-[1,1′-biphenyl]-4-carboxamido)-3-chloro-N-(2,2,2-trifluoroethyl)picolinamide]
18 | 100 to 500 | CC1(CNC(=O)c2ncc(NC(=O)c3cc(F)c(-c4ccc(F)cc4N)cc3Cl)cc2Cl)CC1 [Example A436, 5-(2′-amino-5-chloro-2,4′-difluoro-[1,1′-biphenyl]-4-carboxamido)-3-chloro-N-((1-methylcyclopropyl)methyl) picolinamide]
19 | 10 to 100 | Nc1cc(F)ccc1-c1cc(Cl)c(C(=O)Nc2cnc(C(=O)NCc3nc[nH]n3)c(Cl)c2)cc1F [Example A463, N-((1H-1,2,4-triazol-3-yl)methyl)-5-(2′-amino-5-chloro-2,4′-difluoro-[1,1′-biphenyl]-4-carboxamido)-3-chloropicolinamide]
20 | 100 to 500 | Nc1cc(F)ccc1-c1cc(Cl)c(C(=O)Nc2cnc(C(=O)NCCOC(F)(F)F)c(Cl)c2)cc1F [Example A459, 5-(2′-amino-5-chloro-2,4′-difluoro-[1,1′-biphenyl]-4-carboxamido)-3-chloro-N-(2-(trifluoromethoxy)ethyl)picolinamide]
21 | ≤ 10 | C#Cc1c(F)ncc(N)c1-c1cc(Cl)c(C(=O)Nc2cnc(-n3nccn3)c(Cl)c2)cc1F [Example A486, 4-(5-amino-3-ethynyl-2-fluoropyridin-4-yl)-2-chloro-N-(5-chloro-6-(2H-1,2,3-triazol-2-yl)pyridin-3-yl)-5-fluorobenzamide]
22 | ≤ 10 | CCNC(=O)c1ncc(NC(=O)c2cc(F)c(-c3ccc(F)cc3N)cc2Cl)cc1Cl [Example A444, 5-(2′-amino-5-chloro-2,4′-difluoro-[1,1′-biphenyl]-4-carboxamido)-3-chloro-N-ethylpicolinamide]
23 | 10 to 100 | C#Cc1cnccc1-c1cc(Cl)c(C(=O)Nc2cnc(C(=O)NCCOC(F)(F)F)c(Cl)c2)cc1F [Example A431, 3-chloro-5-(2-chloro-4-(3-ethynylpyridin-4-yl)-5-fluorobenzamido)-N-(2-(trifluoromethoxy)ethyl) picolinamide]
24 | ≤ 10 | C#Cc1c(F)nc(C)c(N)c1-c1cc(Cl)c(C(=O)Nc2cnc(-n3nccn3)c(C(F)(F)F)c2)cc1F [Example A556, N-(6-(2H-1,2,3-triazol-2-yl)-5-(trifluoromethyl)pyridin-3-yl)-4-(3-amino-5-ethynyl-6-fluoro-2-methylpyridin-4-yl)-2-chloro-5-fluorobenzamide]
